Where two headings read alike, the source gives them in different places.

The conditions of data set [1]: cited from earlier work. As for the experimental part: Several variables may influence colistin plasma concentration as demographic (e.g. body mass), clinical (e.g. kidney function) and therapeutic (e.g. RRT modality, membrane, mode and dose) variables. In order to account for CRRT removal of colistin, the 2019 international guidelines for the optimal use of polymyxins recommend administering a daily dose of 440 colistin base activity (CBA), corresponding to ≈ 13,3 MIU or ≈ 1173 mg of CMS in patients who are exposed to this extracorporeal organ support. […] The authors, documenting a 62% ClCVVHDF, formulated a pharmacokinetic model where a LD of 12 MIU followed by a maintenance dosage of 6.75–7.5 MIU q12 would be needed to achieve a target Css, avg of 2–3 mcg/mL [31]. […] Further, in the latest and largest investigation on this topic, ten critically ill patients requiring CRRT and receiving CMS 3 MIU q8 were prospectively studied.

Data set [2] in a line: Colistin plasma pharmacokinetics at steady state in critically ill patients undergoing CRRT (CVVHDF). The note with it: median [IQR]. It counts as in vivo, human. As for the experimental part: According to current guidelines, CMS high dosage (HD) was administered intravenously (IV) at loading dose (LD) of 9 MIU […] over 30-min, followed by 6.75 MIU over 30-min q12. On day 4, at steady state, pharmacokinetic analyses of the study group were performed. CRRT was delivered as continuous veno-venous hemodiafiltration (CVVHDF) with Prismaflex ST150 (Gambro AB, Lund, Sweden) using the AN69 ST membrane (acrylonitrile-sodium-methyl sulfonate surface treated; surface area, 1.5m2) and regional citrate anticoagulation. Dose intensity was prescribed according to current guidelines, and with a ratio of dialysate to replacement fluid of 1:1. The CRRT circuit and membrane were changed every 72 h, as standard operating procedure in our center.
Although colistin concentration-time profiles are stable just on day 3, blood samples were collected after the seventh dose (on day 4 of treatment) at T0 (immediately before the initiation of CMS infusion) and 1 h, 2 h, 4 h, 6 h, 8 h, 10 h and 12 h from the start of CMS infusion. First order kinetic determined pharmacokinetic parameters; maximum and minimum concentrations (Cmax, Cmin) were directly obtained from observed peak and trough concentrations. The 0–12 h area under the time–concentration curve (AUC0–12 ) was determined by the linear trapezoidal rule. Colistin AUC0–24 was calculated as AUC0–12 × 2. The average steady-state plasma concentration (Css, avg) was obtained from the ratio of colistin AUC 0–24 above T (i.e. the dosage interval). In all patients, distribution volume (Vd), drug clearance (CL), and elimination half-life (t1/2 ) were calculated after a single 6.75 MIU intravenous dose at steady state. According to current guidelines, the recommended PK/PD therapeutic target has been considered the area under the plasma concentration- time curve across 24 h at steady state above MIC (fAUCss 0−24 hr) of ~ […], that equates to a target Css, avgof ~ 2 mg/L of the total drug against susceptible strains (MIC ≤ 2 mcg/mL). […] Colistin and CMS concentration were measured using and modifying the Gobin assay.

For data set [3] the following is noted: plasmatic absorption after aerosolization of either 3 MIU and 5 MIU CMS; cited from earlier work. The text has this: In our study, all patients underwent CVVHDF with a similar daily dose and since this technique uses diffusion across a concentration gradient (e.g. hemodialysis) in addition to hemofiltration across a pressure gradient, the equivalences of the two modes with respect to CMS/colistin clearance are unknown. Additionally none of our patients had residual renal function and almost all were also receiving high dose nebulized CMS (5 MIU q8), delivered through vibrating mesh nebulizers, potentially contributing to the higher than expected steady-state colistin levels. In our study we cannot asc ...

Data set [4] has as its system Acinetobacter spp. The data set can be described thus: Colistin MIC of BAL isolates (Micronaut AST BMD, VITEK 2 AST-N397, EUCAST v11.0). It counts as cell-based. The note with it: BAL Acinetobacter spp. isolates of 20 patients; median [interquartile range]. The protocol:
Bacterial isolates were identified by using matrix-assisted laser desorption ionization-time of flight mass spectrometry (MALDI-TOF MS). MICs were determined by a Micronaut AST system-based BMD, VITEK 2 AST-N397 card, according to the manufacturer’s instructions. EUCAST (version 11.0, 2021) clinical breakpoints were used to interpret MICs. In pneumonia episodes, microbiological evidence of bacterial infection was achieved by processing respiratory samples both for conventional and fast-microbiology panel testing. […] Semiquantitative culture results were obtained using calibrated loops to inoculate and streak samples on both selective/differential.

Data set [5] concerns CR-Acinetobacter baumannii ventilator associated pneumonia (VAP). The data set can be described thus: Clinical outcome of patients treated with high-dose intravenous colistimethate. It counts as in vivo, human. The note with it: 20 patients, IV CMS 9 MIU LD then 6.75 MIU q12 in combination therapy, no control group.
The conditions of data set [6]: in vivo, iv.
Protocol: Clinical and demographic data were recorded upon enrolment. […] Renal recovery was defined as a reduction in peak AKI-KDIGO stage [21] and was evaluated in patients without chronic kidney disease.
Setting [7] is: eight critically ill patients receiving CRRT, CMS 4.5 MIU q12.
Setting [8] is: five patients on CRRT, CMS until 2 MIU q8.
The mark [9] stands for this setting: ten critically ill patients requiring CRRT, CMS 3 MIU q8.
Where [10] appears, read: colistin, 20 patients on CVVHDF (AN69 ST membrane), steady state.

With `CC[C@H](C)CCCCC(=O)N[C@@H](CCN)C(=O)N[C@H](C(=O)N[C@@H](CCN)C(=O)N[C@H]1CCNC(=O)[C@H]([C@@H](C)O)NC(=O)[C@H](CCN)NC(=O)[C@H](CCN)NC(=O)[C@H](CC(C)C)NC(=O)[C@@H](CC(C)C)NC(=O)[C@H](CCN)NC1=O)[C@@H](C)O` (mixture of isomers) [Colistin, Colistin (polymixin E)], in data set [1] (setting [7]), the ClCVVHDF is reported as 62% and the “median Cmax” value was 1720 ng/mL. In addition, in data set [1] (setting [8]), the CLHDF result is on record as “above 4 L/h”; the “Css, avg” value is not above 1 µg/mL; the membrane extraction ratio was 68%. Further, the steady-state concentrations result in data set [1] (high CMS daily administration schedules during CRRT, especially with residual renal function and prolonged course) is given as “above 10 mcg/mL”. In addition, in data set [1] (setting [9]), the AUC0-24 is 569 [404–741] mcg h/mL; the “CRRT clearance as share of total clearance” value was 28%; the “Css, avg” value was 4.43 [3.01–7.24] mcg/mL. Moreover, the effluent clearance share result in data set [1] (three patients on CRRT) was “about 40%”. Moreover, in data set [2] (setting [10]), the “%E (% filter extraction)” value was 17.65 [14.98–21.67] % and the CLCRRT is 1.21 [0.88–1.35] L/h. Also, in data set [2] (human, plasma, colistin, 20 patients on CVVHDF, after a single 6.75 MIU IV CMS dose at steady state), the Vd (as a rule, the apparent volume that relates the amount in the body to the concentration in plasma or blood) was 126 L. Further, the half-life – broadly, the time needed for the level to fall by half in the phase considered – in data set [2] (human, plasma, colistin, 20 patients on CVVHDF, after a single 6.75 MIU IV CMS dose at steady state, one-compartment, first order) was 20.9 h. The clearance in data set [2] (human, plasma, colistin, 20 patients on CVVHDF, after the seventh 6.75 MIU IV CMS dose at steady state, read-out: CLTOT (converted)) was 34.7 mL/min. Besides, the peak level in data set [2] (human, plasma colistin, 20 critically ill anuric patients on CVVHDF (AN69 ST, 32.5 mL/kg/h), IV CMS 9 MIU LD then 6.75 MIU q12, after seventh dose (day 4, steady state), observed peak, modified Gobin assay) (Cmax) was 16600 ng/mL. Further, the AUC(0-t) in data set [2] (human, plasma colistin, 20 patients on CVVHDF, IV CMS 6.75 MIU q12 after 9 MIU LD, day 4, AUC0-12 (linear trapezoidal) x 2, read-out: AUC0-24) turned out to be 194 µg·h/mL. In data set [2] (human, plasma colistin, 20 patients on CVVHDF, IV CMS 9 MIU LD then 6.75 MIU q12, after seventh dose (day 4), observed trough, read-out: Cmin), the level at 96 h was 3930 ng/mL. The “Css, avg (average steady-state concentration)” value in data set [2] (plasma colistin, 20 patients on CVVHDF, IV CMS 9 MIU LD then 6.75 MIU q12, day 4, AUC0-24 over dosage interval) is 8.07 [7.1–8.69] mcg/mL. Besides, the “Css, avg in patients who recovered renal function” value in data set [2] (plasma colistin, subgroup with renal recovery, p = 0.026 vs no renal recovery) is 7.48 [6.35, 8.05] mcg/mL. Besides, the “Css, avg in patients that had no renal recovery” value in data set [2] (plasma colistin, subgroup without renal recovery, p = 0.026 vs renal recovery) was 8.31 [7.35, 9.13] mcg/mL. Moreover, the fAUC0-24 in data set [2] (unbound colistin, unbound fraction derived from literature, 20 patients on CVVHDF, IV CMS 6.75 MIU q12, day 4) was 58.16 [51.18–62.6] mcg h/mL. Besides, the “colistin concentrations after aerosolization” value in data set [3] was less than 1 µg/mL. Also, the MIC in data set [4] was 1[1-1.5] mcg/mL.

For colistimethate [CMS], the “Death in ICU” value in data set [5] (18 with nebulized CMS) was 15 (75) count (percentage). In data set [5], the Treatment failure was 14 (70) count (percentage). Also, the “Renal Recovery” value in data set [6] is reported as 6 (37.5) count (percentage). In data set [1] (human, in vivo), the “CRRT clearance as share of total clearance” value was 41%; the “median Cmax” value is 12600 ng/mL; the “risk to overcome the safety limit of Css, avg ≥ 4 mcg/mL” value is given as “less than 30%”; the “target attainment rate (Css, avg ≥ 2 mcg/mL)” value was 80%.

Values taken from publication PMC11438743, “High-dose colistin pharmacokinetics in critically ill patients receiving continuous renal replacement therapy” (Annals of Intensive Care, 2024).
